Where two headings read alike, the source gives them in different places.
Experiments:
[1] = In vivo pharmacokinetic evaluation in mice; conditions: mouse, plasma, ICR mice; for bioavailability: ig 3 mg/kg vs iv 0.5 mg/kg, read-out: Absolute bioavailability F; for MRT last: read-out: MRT(0-24); for half-life: read-out: t½ (converted); for AUC(0-t): read-out: AUC(0-24)
Protocol: ICR mice of 18-22 g were randomized into 4 groups of 9 mice after 3-5 days of acclimatization. […]
The test animals (ICR mice) were fasted from 12 h pre-dose to 4 h post-dose, and given free access to water throughout the study.
Orbital blood samples of about 0.1 mL were collected at 15 min, 30 min, 1 h, 2 h, 3 h, 4 h, 6 h, 8 h, 10 h, and 24 h post-dose for the intragastric administration, and at 5 min, 10 min, 30 min, 1 h, 2 h, 4 h, 6 h, 8 h, 10 h, and 24 h post-dose for the intravenous administration. The blood sampling was performed at 3-4 time points for each mouse, 3 mice per time point. The collected whole blood was transferred into EDTA-K2-containing centrifuge tubes and stored at 4° C., and, within 1 h, centrifuged at 4° C. at 4000 rpm for 10 min to separate the plasma. All the plasma samples were immediately stored after collection at −20° C. for testing.
30 μL of the plasma sample to be tested and a standard curve sample were pipetted and added with 300 μL of an acetonitrile solution containing an internal standard (20 ng/mL of diazepam). The mixture was shaken to mix well for 5 min, and centrifuged at 13,000 rpm for 10 min. 80 μL of the supernatant was taken and diluted with 80 μL of ultrapure water. After a thorough mixing, 2 μL of the resulting sample was taken for liquid chromatography-mass spectrometry, and the chromatogram was recorded.

[2] = In vitro stability assay in liver microsome (MLM); assay type: in vitro ADME, mouse; conditions: liver microsome 0.5 mg/mL, NADPH+MgCl2, PBS pH 7.4, 1 h
Protocol: (§1) Liver microsome incubation samples were prepared by mixing a PBS buffer (pH 7.4), a liver microsome solution (0.5 mg/mL), a test compound, and an NADPH+MgCl2 solution, and incubated at […] and 300 rpm for 1 h. Zero-hour samples were prepared by mixing a PBS buffer (pH 7.4), a liver microsome solution (0.5 mg/mL), and a test compound. An acetonitrile solution containing an internal standard was added to the samples, and supernatants were prepared by protein precipitation, diluted, and then assayed by LC/MS/MS.

GLP1R = GLP1R (Homo sapiens, UniProt P43220); test: In vitro cellular cAMP expression activity assay (CRE-luciferase reporter); assay type: cell-based; conditions: HEK293/CRE-Luc/GLP1R cells, 6 h incubation, luciferase luminescence; read-out: HEK293/CRE-Luc/GLP-1R EC50
GLP1R, sequence (P43220 24-463): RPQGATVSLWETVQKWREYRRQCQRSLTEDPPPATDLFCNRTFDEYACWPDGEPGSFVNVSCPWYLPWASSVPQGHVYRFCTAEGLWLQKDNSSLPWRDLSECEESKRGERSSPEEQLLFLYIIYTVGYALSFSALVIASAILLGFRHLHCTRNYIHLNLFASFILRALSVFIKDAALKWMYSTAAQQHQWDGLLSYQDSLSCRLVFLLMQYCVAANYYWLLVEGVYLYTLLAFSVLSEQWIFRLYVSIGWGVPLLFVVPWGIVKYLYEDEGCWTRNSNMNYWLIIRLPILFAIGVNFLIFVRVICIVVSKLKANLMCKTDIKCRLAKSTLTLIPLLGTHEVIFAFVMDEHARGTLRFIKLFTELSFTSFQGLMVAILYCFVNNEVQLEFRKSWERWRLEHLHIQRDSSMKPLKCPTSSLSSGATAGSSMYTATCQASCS
Protocol: HEK293/CRE-Luc/GLP1R cells (manufacturer: GenScript Biotech Corporation) in a good growth state were taken, washed with PBS, and digested with pancreatin. The digestion was terminated with a complete medium. The cells were collected into a centrifuge tube, adjusted to a cell density of 4×10^5 cells/mL using a DMEM+2% FBS medium, seeded in a 96-well plate (100 μL/well), and incubated at 37° C. for 1 h. After 1 h, the compounds were added using a nanoliter pipettor such that the final concentrations of the compounds were 10 nM-0.0006 nM. The compounds were added in duplicate, and a control was set. After the cells were incubated in a cell incubator for another 6 h, a detection reagent Luciferase (manufacturer: Vazyme Biotech, 50 μL/well) was added. The plate was left to stand at room temperature for 3 min to fully lyse the cells, and the luminescence was detected on a PerkinElmer Envision microplate reader. A dose-response curve was fitted by four-parameter analysis, and the EC50 was calculated.

[3] = In vitro stability assay in liver microsome (HLM); assay type: in vitro ADME, human; conditions: liver microsome 0.5 mg/mL, NADPH+MgCl2, PBS pH 7.4, 1 h
Protocol: as §1

[4] = system: GLP-1R humanized C57BL/6J mice; test: Evaluation of hypoglycemic effect in mice (intraperitoneal glucose challenge); assay type: in vivo; conditions: intragastric dose 1 mg/kg, glucose 2 g/kg ip 5 h after administration
Source text: GLP-1R humanized C57BL/6J mice of 20-22 g were used in this study after 3 days of acclimatization. All the animals were deprived of food but not water until the end of study. Blood samples were collected from the tail tip of the mice.
The test animals were deprived of food but not water overnight before the study. The next day, blood was collected from all the animals for blood glucose testing, and the animals were randomized into a normal control group, a positive control group, and test compound groups by blood glucose and body weight, with 6 animals in each group. The groups were then given intragastric doses, and 5 h after the administration, an intraperitoneal injection of glucose solution (2 g/kg) was given. The blood glucose concentration was measured at 0.25 h, 0.5 h, 1 h, 2 h, and 3 h after the glucose injection. The blood glucose was recorded throughout the study, and the area under the blood glucose-time curve AUC0-180 min Glu was calculated.

Compound	bioavailability ([1]; po)	MRT last ([1]; po, ig, dose 3 mg/kg)	half-life ([1]; po, ig, dose 3 mg/kg)	MRT last ([1]; iv, dose 0.5 mg/kg)	half-life ([1]; iv, dose 0.5 mg/kg)	AUC(0-inf) ([1]; po, ig, dose 3 mg/kg)	AUC(0-t) ([1]; po, ig, dose 3 mg/kg)	AUC(0-inf) ([1]; iv, dose 0.5 mg/kg)	AUC(0-t) ([1]; iv, dose 0.5 mg/kg)	MLM Remaining (T = 60 min) [2]	EC50 (GLP1R)	HLM Remaining (T = 60 min) [3]	AUC0-180 min Glu reduction (%) [4]
Cc1cc(-n2nc3c(c2-n2ccn(-c4ccc5c(c4)N(C)C(=O)C54CC4)c2=O)[C@H](C)N(C(=O)c2cc4cc(C5CCOC(C)(C)C5)ccc4n2[C@@]2(c4noc(=O)[nH]4)C[C@@H]2C)CC3)cc(C)c1F (single isomer, unassigned) [Compound 5]	35.2%	7.8 h	256 min	5.16 h	276 min	4780 ng·h/mL	4640 ng·h/mL	2260 ng·h/mL	2220 ng·h/mL	94.32%	< 0.5 nM	98.60%	83%
Cc1cc(-n2nc3c(c2-n2ccn(-c4ccc5c(c4F)N(C)C(=O)C54CC4)c2=O)[C@H](C)N(C(=O)c2cc4cc([C@H]5CCOC(C)(C)C5)ccc4n2[C@@]2(c4noc(=O)[nH]4)C[C@@H]2C)CC3)cc(C)c1F [Compound 14]	37.8%	10.1 h	332 min	6.78 h	346 min	4910 ng·h/mL	4560 ng·h/mL	2170 ng·h/mL	2060 ng·h/mL	90.40%	< 0.5 nM	89.53%	79%
Cc1cc(-c2nn3c(c2-n2ccn(-c4ccc5c(c4)N(C)C(=O)C54CC4)c2=O)[C@H](C)N(C(=O)c2cc4cc([C@H]5CCOC(C)(C)C5)ccc4n2[C@@]2(c4noc(=O)[nH]4)C[C@@H]2C)CC3)cc(C)c1F [Compound 27-D]										87.54%	< 0.5 nM	86.20%	75%
